One data set concerns SUZ12. The experiment in a line: SUZ12 protein level, Western blotting. It counts as cell-based, human. Conditions: PC3 and Du145, 30 or 60 nM, 72 h. On the procedure: FIG. 6A: Putative binding site of miR-141 in EZH2 3′-UTR. […] FIG. 6C is a qPCR analysis of EZH2 mRNA levels in CD44^+ PCa cells. Bars, mean±SD. *P<0.05; **P<0.01. […] Bars, mean±SD. **P<0.01. […] Western blotting was performed in PC3 and Du145 cells transfected with NC (60 nM) or miR-141 (30 or 60 nM) oligos (72 h). Relative protein levels were measured by densitometry and normalized to GAPDH levels (indicated below). […] Du145 cells plated one day before were treated with 1, 2, and 5 μM of DZNep for 96 h and then cells were harvested for invasion assays. **P<0.01. Inset, WB showing reduced EZH2 proteins by DZNep. […] Du145 cells were transfected with 10 nM scramble siRNA (siCon) or EZH2-targeting siRNAs (siEZH2) or siEZH2 plus anti-miR-141 (30 nM). 48 h later, cells were harvested for invasion assays. Bars, mean±SD. **P<0.01. […] Du145 cells were co-transfected with 30 nM NC or miR-141 oligos together with empty vector or pCMV-EZH2 construct. After 48 h, cells were harvested for invasion assay. Bars, mean±SD. **P<0.01.

The subject of another data set is Du145 cells. As to the kind of experiment: Boyden chamber Matrigel invasion assay. It counts as cell-based, human. As to conditions: miR-141 oligos 30 nM, 48 h vs NC. The protocol:
FIGS. 3A-3J show partial suppression of epithelial to mesenchymal transition by miR-141 and CD44 as a direct target of miR-141. FIGS. 3A-3B show qPCR analysis of epithelial to mesenchymal transition markers in bulk (FIG. 3A) or CD44^+ (FIG. 3B) Du145 cells transfected with the miR-141 oligos (30 nM; 48 h). Results were presented as the relative expression levels over the cells transfected with the NC oligos. […] GAPDH was used as control and the relative protein levels after normalizing to GAPDH and NC controls were indicated below each lane. […] Shown below is the actual sequence in the region with the mutated miR-141 binding sequence indicated in grey (below). […] Shown are representative images. […]
Du145 cells transfected with NC or miR-141 oligos at the two doses and time intervals indicated were used in Western blotting. Indicated below are relative expression levels (normalized to respective GAPDH and compared to NC) of each protein determined by densitometric scanning of the individual bands. […]
FIG. 6A: Putative binding site of miR-141 in EZH2 3′-UTR. […] Relative protein levels were measured by densitometry and normalized to GAPDH levels (indicated below). […]
For Boyden Chamber invasion assays, Biocoat Matrigel Invasion Chamber (BD, Franklin Lakes, N.J.) was employed following the manufacturer's instructions. […] Representative images were taken for each membrane and cells were counted. […]

Data set [1] has as its system E-Cadherin and ZEB-1 in PC3 and Du145 cells. The experiment in a line: Western blotting of E-Cadherin and ZEB-1. As to conditions: bulk Du145 and PC3 cells; 30 or 60 nM, 48 h. The data set is classed as cell-based, human. On the procedure:
FIGS. 3A-3J show partial suppression of epithelial to mesenchymal transition by miR-141 and CD44 as a direct target of miR-141. FIGS. 3A-3B show qPCR analysis of epithelial to mesenchymal transition markers in bulk (FIG. 3A) or CD44^+ (FIG. 3B) Du145 cells transfected with the miR-141 oligos (30 nM; 48 h). Results were presented as the relative expression levels over the cells transfected with the NC oligos. […] GAPDH was used as control and the relative protein levels after normalizing to GAPDH and NC controls were indicated below each lane. […] Shown below is the actual sequence in the region with the mutated miR-141 binding sequence indicated in grey (below). […] Shown are representative images. […] Du145 cells were co-transfected with NC or miR-141 oligos (30 nM) together with pBabe empty vector or pBabe-CD44 vector. After 48 h, cells were harvested for invasion assays. Bars, mean±SD. *, P<0.05; **, P<0.01.
(In general: Immunoblotting shows a protein as a band on a membrane.)

Another data set concerns human EZH2 3'-UTR. The experiment in a line: EZH2 3'-UTR luciferase reporter assay. The data set is classed as cell-based. Conditions: Du145 cells. The protocol: FIG. 6A: Putative binding site of miR-141 in EZH2 3′-UTR. […] FIG. 6C is a qPCR analysis of EZH2 mRNA levels in CD44^+ PCa cells. Bars, mean±SD. *P<0.05; **P<0.01. […] Bars, mean±SD. **P<0.01. […] Western blotting was performed in PC3 and Du145 cells transfected with NC (60 nM) or miR-141 (30 or 60 nM) oligos (72 h). Relative protein levels were measured by densitometry and normalized to GAPDH levels (indicated below). […] Du145 cells plated one day before were treated with 1, 2, and 5 μM of DZNep for 96 h and then cells were harvested for invasion assays. **P<0.01. Inset, WB showing reduced EZH2 proteins by DZNep. […] Du145 cells were transfected with 10 nM scramble siRNA (siCon) or EZH2-targeting siRNAs (siEZH2) or siEZH2 plus anti-miR-141 (30 nM). 48 h later, cells were harvested for invasion assays. Bars, mean±SD. **P<0.01. […]
The human CD44 3′-UTR was amplified from Du145 genomic DNA using primers 5′-[…]-3′ (SEQ ID NO: 2) and 5′-[…]-3′ (SEQ ID NO: 3), as previously described (13). […] The luciferase activities were detected using Duo-luciferase reporter assay system (Promega). Human RAC1, CDC42, CDC42EP3, and ARPC5 3′-UTR luciferase reporter constructs were obtained from SwitchGear Genomics (Menlo Park, Calif.) and luciferase activities were measured per the manufacturer's instructions using LightSwitch luciferase assay kit.
On the technique in general: Reporter assays use an easily measured gene product as a stand-in for the process of interest.

Regarding “miR-141: miR-141 mirVana mimics (Life Technologies); microRNA-141 oligonucleotide may have SEQ ID NO: 1; in some experiments over-expressed by lentiviral vectors (UAACACUGUCUGGUAAAGAUGG; listed as RNA, further chemistry not given here) [miR-141 mirVana mimics (Life Technologies); in some experiments over-expressed by lentiviral vectors]”, the SUZ12 protein level result in the data set with SUZ12 is “reduced”. The Du145 cell invasion result with Du145 cells is reported as “inhibited”. In data set [1], the “E-cadherin (CDH1) protein level” value is on record as “increased” and the ZEB1 protein level entry is on record as “reduced”. In addition, in the data set on human EZH2 3'-UTR, the “luciferase activity, WT EZH2 3'-UTR” value is reported as “suppressed” and the “luciferase activity, mutated EZH2 3'-UTR” value is reported as “not”.
